Test results published in article PMC12990037, “Discovery of Two Structurally Distinct Classes of Inhibitors Targeting the Nuclease MUS81 and Enhancing Efficacy of Chemotherapy in Cancer Cells” (Journal of Medicinal Chemistry, 2026).

Assays:
U2OS, HEK293, and CAL51 = experiment: Cell proliferation assay (CyQUANT), combination with cisplatin; assay type: cell-based; conditions: cotreatment with cisplatin, 5 days
Protocol: 7 MUS81 inhibitors synergize with cisplatin to reduce cancer cell viability. (A,B) U2OS cells were treated with DMSO, MU262, or MU876 at the indicated concentrations in combination with a range of cisplatin (0–5 μM) for 96–120 h. Cell viability was assessed by the Cy-Quant assay. The survival was normalized to the DMSO-treated control. Graphs were generated in Graphpad Prism using the nonlinear regression fitting model. n ≥ 3, error bars represent s.d. (C) CAL51 WT cells were treated with DMSO, MU262, or MU876 at the indicated concentrations at each passage over 2 weeks. Cisplatin (12 μM) was added for the last 24 h before harvest. DNA damage was assessed by quantifying γH2AX foci using fluorescence microscopy and CellProfiller software. Data were visualized plotted in R software. Red markers represent the median of γH2AX foci number per nucleus; blue markers represent the percentage of cells with ≥20 γH2AX foci per nucleus. n = 3, error bars represent s.d.; ****p <0.0001 (unpaired, two-tailed t-test). TEXT PRINTED IN THE PICTURE: (C) D: γH2AX foci: 2.4 (DMSO); γH2AX foci: 59.6 (Cisplatin) | (C) MU262: γH2AX foci: 2.3 (1 μM; DMSO); γH2AX foci: 3 (2 μM; DMSO); γH2AX foci: 55.4 (1 μM; Cisplatin); γH2AX foci: 43.2 (2 μM; Cisplatin) | (C) MU876: γH2AX foci: 2.8 (0.25 μM; DMSO); γH2AX foci: 0.9 (0.5 μM; DMSO); γH2AX foci: 48.2 (0.25 μM; Cisplatin); γH2AX foci: 42.6 (0.5 μM; Cisplatin) DOUBTS OF THE COPYIST ABOUT THIS PICTURE: Panel C: the numbers in the blue markers have no measure or unit of their own printed in the picture; the axis title 'γH2AX foci' is given as the measure, but the numbers may stand for another quantity. / Panel C: 'D' is a control column with no concentration; it may not count as a substance. / Panel C: small white print on blue markers; 59.6, 55.4, 48.2, 43.2, 42.6, 2.8 and 0.9 are best readings (3, 5, 6, 8 and 9 are hard to tell apart).
CAL51 WT, CAL51 MUS81^–/–, U2OS, and HEK293 cells were seeded in a 96-well plate and treated with the respective concentration of selected inhibitors. […]

U2OS cells = experiment: Analysis of micronuclei; assay type: cell-based; conditions: 48 h
Protocol: 5 Small-molecule inhibitors of MUS81 mimic the effect of siRNA-mediated MUS81 depletion in cells. (A) U2OS cells were treated with DMSO, MUS81-targeting siRNA, MU262, MU876, or their respective control analogues for 48 h. Cytochalasin B (1.25 μg/mL) was added 16 h before harvest to prevent cytokinesis. […] (B) Representative images corresponding to the selected conditions from (A). (C) U2OS and (D) HeLa cells were incubated with DMSO, the indicated inhibitors, and their respective control analogues for 48 h. Nocodazole (200 ng/mL) was added for 5 h prior to the end of treatment to arrest cells in mitosis. Mitotic cells were collected by shake-off, and telomere fragility events (TFEs) were quantified manually for each metaphase spread. At least 70 metaphase spreads were quantified per condition. n = 3; error bars represent s.d.; ***p < 0.001, ****p < 0.0001 (ordinary One-way ANOVA).
CAL51 WT and CAL51 MUS81^–/– cells were seeded in a 96-well plate 24 h before the treatment. Alternatively, cells were transfected with 30 nM siRNA (control or MUS81) for 48 h before treatment. Subsequently, cells were treated with respective inhibitors for 48 h. During the last 16 h, cytochalasin B (Sigma-Aldrich) was added to the cells at a concentration of 1.25 μg/mL. […] Images were acquired using a Nikon Eclipse fluorescence microscope and analyzed using ImageJ software.

For `CCc1nn2c(O)c(-c3nc4ccccc4[nH]3)nnc2c1-c1ccc(F)cc1` [Compound 18, 3-(1H-Benzo[d]imidazole-2-yl)-7-ethyl-8-(4-fluorophenyl)pyrazolo[5,1-c][1,2,4]triazin-4-ol], the “enhancement of cisplatin-induced decrease of viability” value (U2OS, HEK293, and CAL51) was “further enhanced by cotreatment with both MUS81 inhibitors in a dose-dependent manner” and the micronuclei formation (U2OS cells) was “significantly increased micronuclei formation”.

With `Cc1cc(=O)[nH]c(-n2nc(-c3ccccc3)cc2NC(=O)c2cc(-c3ccccc3)on2)n1` [Compound 32, N-(1-(4-Methyl-6-oxo-1,6-dihydropyrimidin-2-yl)-3-phenyl-1H-pyrazol-5-yl)-5-phenylisoxazole-3-carboxamide] the “enhancement of cisplatin-induced decrease of viability” value (U2OS, HEK293, and CAL51) was “further enhanced by cotreatment with both MUS81 inhibitors in a dose-dependent manner” and the micronuclei formation (U2OS cells) was “significantly increased micronuclei formation”.
